Assay results taken from paper PMC5021948, “Amyloidogenic amyloid-β-peptide variants induce microbial agglutination and exert antimicrobial activity” (Scientific Reports, 2016).

Legend:
[1] = system: E. faecalis; assay: Automated quantification of cell aggregation on immunocytochemistry slides; assay type: cell-based, Enterococcus faecalis; settings: 50 μg/ml, 6 h
Method: (§1) The immunocytochemistry of E. faecalis and S. aureus was examined using the Gram preparations specified above. To achieve the robust adherence of pathogens on the glass slides during the staining procedure, cells were incubated with 2% paraformaldehyde (Sigma-Aldrich, Munich, Germany) on the slides and air dried for 60 min at room temperature, followed by washing with PBS (Biochrom, Berlin, Germany). […]
(§2) All images were visually quality controlled. […] An automated quantitative phenotypic image analysis was performed using a custom-adapted version of the image analysis software DetecTiff. Pericellular Aβ peptide levels were quantified from the AF488 channel within donut-shaped masks (see Fig. 1B), which were generated from the DAPI channel in a three-step procedure. […] The Aβ peptide level in an individual cell was calculated as the arithmetic mean of all pixel values within the area of a donut-shaped mask and reported as the mean pixel intensity. Cell aggregation was quantified in an automated manner from segmented images of DAPI-stained nuclei by counting the number of bacteria adjacent to a selected individual bacterium within a rectangular 50-pixel[2] region.

[2] = system: E. faecalis, E. coli, S. aureus, L. monocytogenes and C. albicans; assay: Flow cytometry of damaged microorganisms (increased autofluorescence / reduced forward scatter); assay type: cell-based; settings: 25 or 50 μg/ml, 6 h bacteria, 20 h C. albicans
Method: Enterococcus faecalis (ATCC 29212), Listeria monocytogenes (VA 15110/93), Escherichia coli (DH5α) and Staphylococcus aureus (ATCC 25923) were grown aerobically on blood agar plates. Candida albicans (ATCC 10231) was plated on Sabouraud dextrose agar plates. E. coli, S. aureus and C. albicans were cultured at 37 °C; E. faecalis and L. monocytogenes were cultured at 37 °C with an additional 5% CO2. Before the experiments, the organisms were subcultured to generate mid-logarithmic growth cultures for use as inoculates. Colonies from the agar were transferred using a sterile loop to Mueller-Hinton broth (Roth, Karlsruhe, Germany) and incubated for 100 min at 39 °C to achieve a McFarland density of 0.5. The C. albicans and bacterial inocula were normalized in Mueller-Hinton broth to 5 × 10^5 cells/ml immediately before use. For the experiments, an inoculum of 5 × 10^5 cells/ml was dispensed into 96-well plates containing Mueller-Hinton broth growth medium with Aβ peptides, as indicated below. […]
After 6 h of incubation for bacteria and 20 h for C. albicans, 50 μl of the cell suspension was diluted in 1% paraformaldehyde (Sigma-Aldrich, Munich, Germany) and stained with DAPI (Sigma-Aldrich, Munich, Germany). Flow cytometry analysis was performed using a Gallios Cytometer (Beckman Coulter, Krefeld, Germany), and the results were evaluated using Kaluza® software (Beckman & Coulter, Krefeld, Germany). Experiments were repeated at least three times for each organism, and duplicates were included for each assay condition. Cultures treated with antibiotics, Mueller-Hinton broth without cells and untreated cells served as controls. Viability was assessed based on the increase in autofluorescence and reduction of forward scatter as signs of microbial damage.

[3] = system: Enterococcus faecalis (ATCC 29212); assay: Colony forming units after plating Aβ-treated cultures; assay type: cell-based; settings: 50 μg/ml peptide, 6 h, Mueller-Hinton broth, inoculum 5 × 10^5 cells/ml, spiral plated, colonies counted after 24 h
Method: (§3) Enterococcus faecalis (ATCC 29212), Listeria monocytogenes (VA 15110/93), Escherichia coli (DH5α) and Staphylococcus aureus (ATCC 25923) were grown aerobically on blood agar plates. Candida albicans (ATCC 10231) was plated on Sabouraud dextrose agar plates. E. coli, S. aureus and C. albicans were cultured at 37 °C; E. faecalis and L. monocytogenes were cultured at 37 °C with an additional 5% CO2. Before the experiments, the organisms were subcultured to generate mid-logarithmic growth cultures for use as inoculates. Colonies from the agar were transferred using a sterile loop to Mueller-Hinton broth (Roth, Karlsruhe, Germany) and incubated for 100 min at 39 °C to achieve a McFarland density of 0.5. The C. albicans and bacterial inocula were normalized in Mueller-Hinton broth to 5 × 10^5 cells/ml immediately before use. For the experiments, an inoculum of 5 × 10^5 cells/ml was dispensed into 96-well plates containing Mueller-Hinton broth growth medium with Aβ peptides, as indicated below.
(§4) Immediately before the experiments, all peptides were diluted in Mueller-Hinton broth to reach a final concentration of 100 μg/ml.
(§5) The viability of E. faecalis, E. coli and C. albicans was further examined by plating Aβ-treated cultures on agar plates. Cultures of E. coli, E. faecalis and C. albicans were prepared as described above. After incubation with 50 μg/ml Aβ1-40, Aβ1-42 or Aβ3p-42 for 6 h for bacteria and 20 h for C. albicans, the cell suspensions were diluted in Mueller-Hinton broth, and the microbial load was determined using an Eddy Jet Spiral Plater (IUL Instruments, Germany) by depositing 50 μl of sample on a rotating agar plate. Bacteria were grown on Mueller-Hinton agar plates, and C. albicans was grown on Sabouraud dextrose agar plates. After 24 h of incubation, colonies were counted and translated to colony-forming units (CFU)/ml.

[4] = system: Escherichia coli (DH5α); assay: as above; assay type: cell-based; settings: 50 μg/ml peptide, 6 h, Mueller-Hinton broth, inoculum 5 × 10^5 cells/ml, spiral plated, colonies counted after 24 h
Method: as §3, §4, §5

[5] = system: Candida albicans (ATCC 10231); assay: as above; assay type: cell-based; settings: 50 μg/ml peptide
Method: as §3, §4, §5

[6] = system: E. faecalis; assay: Scanning electron microscopy; assay type: cell-based, Enterococcus faecalis; settings: 50 μg/ml, 6 h
From the text: The specimens were attached to aluminum holders and sputtered with platinum in 15-nm layers using a LEICA EM SCD-500 (Leica, Wetzlar, Germany). The surface morphology of the platinum sputter-coated samples was investigated using a JSM 6 610 scanning electron microscope (JEOL, Peabody, MA, USA) at a working distance of 10 mm and an acceleration voltage of 10 kV at room temperature.

[7] = system: E. faecalis, E. coli, S. aureus, L. monocytogenes and C. albicans; assay: Gram staining, microbial agglutination; assay type: cell-based; settings: 50 μg/ml, 6 h (20 h for C. albicans)
Method: as §3
The same cultures analysed by flow cytometry were used for the gram staining. After incubating the bacteria and C. albicans with the peptides, 10 μl of the cell suspensions were air-dried on microscope slides and flame-fixated. The smears were flooded with crystal violet solution for 2 min. The slides were rinsed and then incubated for 2 min with iodine solution. […]

[8] = system: C. albicans; assay: Proliferation by turbidimetry at 570 nm; assay type: cell-based, Candida albicans; settings: 3.13 or 6.25 μg/ml, 20 h (Fig. 5 legend: 24 h), 37 °C
Method: as §3
An inoculum of 5 × 10^5 cells/ml was dispensed into 96-well plates containing Mueller-Hinton broth growth medium and 3.13 μg/ml or 6.25 μg/ml Aβ-peptides or LL-37 (Anaspec, Fremont, CA, USA). […] The resulting absorbance was measured with a SpectraMax 340 PC 384 microplate reader (Molecular Devices, Biberach, Germany). The proliferation of C. albicans was assessed by measuring turbidity at 570 nm.

[9] = system: S. aureus; assay: Automated quantification of cell aggregation on immunocytochemistry slides; assay type: cell-based, Staphylococcus aureus; settings: 50 μg/ml, 6 h
Method: as §1, §2

[10] = system: surfaces of E. faecalis and S. aureus; assay: Immunocytochemistry (6E10), Aβ peptide bound to microbial surface; assay type: binding; settings: 50 μg/ml, 6 h, 6E10 antibody, mean pixel intensity in donut-shaped masks
[11] = Thioflavin T assay of Aβ peptide aggregation; assay type: physicochemical; settings: 160 μg/ml in PBS/0.4% NH4OH, 0.2 mM Thioflavin T, 37 °C, 6 h, Ex 450/Em 484 nm; with heat inactivated E. coli, S. aureus or C. albicans (McFarland 0.5) versus PBS alone or 0.5 μm carboxylated microbeads
Method: Thioflavin T was used to monitor the aggregation of Aβ1-42 in the presence of microorganisms. In a black 96-well plate, 160 μg/ml of Aβ1-42 in PBS/0.4% NH4OH were mixed with heat inactivated E. coli, S. aureus or C. albicans at a final density of McFarland 0.5. Leaving away the microorganisms or adding 10 μg/ml carboxylated microbeads (Micromod, Rostock, Germany) with a diameter of 0.5 μm served as control. After adding Thioflavin T (Sigma-Aldrich, Munich, Germany) in final concentration of 0.2 mM, kinetic measurement was performed at 37 °C with excitation at 450 nm and emission at 484 nm in a CLARIOstar® microplate reader (BMG labtech, Ortenberg, Germany). Measurements containing the respective microorganisms but no Aβ1-42 served as blank.

| Substance | agglutination of bacteria (number of cells around each bacterium) [1] | antimicrobial / microbicidal activity by flow cytometry [2] | reduction of the number of colony forming units compared to untreated cultures [3] | reduction of the number of colony forming units compared to untreated cultures [4] | antimicrobial effect in culture (colony forming units) ([5]; 20 h) | aggregates of bacteria in scanning electron microscopy [6] | microbial agglutination in Gram stains [7] | proliferation of C. albicans (turbidity) [8] | agglutination of bacteria (number of cells around each bacterium) [9] | binding of Aβ peptide to microbial surfaces [10] | agglutination (aggregation) of the peptide, Thioflavin fluorescence over time [11] | damaged microorganisms (reduced forward scatter and increased autofluorescence, AF+/FSC−), share of cells ([2]; DAPI-positive events) | reduction of the number of colony forming units ([5]; 20 h (Fig. 5 legend: 24 h), Sabouraud dextrose agar, colonies counted after 24 h) [%] |
| --- | --- | --- | --- | --- | --- | --- | --- | --- | --- | --- | --- | --- | --- |
| Aβ1-40: non-amyloidogenic amyloid-β peptide variant ending at position 40 (Anaspec) | almost no agglutination | No microbicidal activity was observed | not reduced | not reduced | moderate antimicrobial effect | Only minor aggregates | Neither Aβ1-40 nor Aβ2-40 induced microbial agglutination | miss the cytotoxic effect | almost no agglutination |  |  |  |  |
| Aβ2-40: non-amyloidogenic, N-terminally truncated amyloid-β peptide variant ending at position 40 (Anaspec) |  | No microbicidal activity was observed |  |  |  | larger aggregates of bacteria that retained their vital morphology | Neither Aβ1-40 nor Aβ2-40 induced microbial agglutination | miss the cytotoxic effect |  |  |  |  |  |
| Aβ1-42: amyloidogenic amyloid-β peptide variant ending at position 42 (Anaspec) | led to agglutination | exerted antimicrobial activity | 50% | 50% |  |  |  |  | led to agglutination | bound to microbial surfaces | more rapid increase in Thioflavin fluorescence | up to 70% | 85 |
